Data as given in PubChem BioAssay (NCI).
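Five concentrations, 48 hours, 96-well plates. At the GI50, growth is halved. TGI: total growth inhibition.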

Assays:
Assay in all cases: NCI-60 cell line screen, 48 h
SK-MEL-28 melanoma = test system: SK-MEL-28 melanoma
HCT-116 colon = test system: HCT-116 colon
IGROV1 ovarian = test system: IGROV1 ovarian
786-0 renal = test system: 786-0 renal
SF-295 CNS = test system: SF-295 CNS
MDA-MB-231 breast = test system: MDA-MB-231 breast
PC-3 prostate = test system: PC-3 prostate
T-47D breast = test system: T-47D breast
MCF7 breast = test system: MCF7 breast
A549 NSCLC = test system: A549 NSCLC
OVCAR-3 ovarian = test system: OVCAR-3 ovarian
OVCAR-5 ovarian = test system: OVCAR-5 ovarian
MOLT-4 leukemia = test system: MOLT-4 leukemia
DU-145 prostate = test system: DU-145 prostate
M14 melanoma = test system: M14 melanoma
UACC-257 melanoma = test system: UACC-257 melanoma
NCI/ADR-RES ovarian = test system: NCI/ADR-RES ovarian
HOP-62 NSCLC = test system: HOP-62 NSCLC
U251 CNS = test system: U251 CNS
SF-539 CNS = test system: SF-539 CNS
UACC-62 melanoma = test system: UACC-62 melanoma
OVCAR-8 ovarian = test system: OVCAR-8 ovarian
NCI-H522 lung = test system: NCI-H522 lung
HCC-2998 colon = test system: HCC-2998 colon
HCT-15 colon = test system: HCT-15 colon
K-562 leukemia = test system: K-562 leukemia
NCI-H460 lung = test system: NCI-H460 lung
OVCAR-4 ovarian = test system: OVCAR-4 ovarian
UO-31 renal = test system: UO-31 renal
SK-MEL-5 melanoma = test system: SK-MEL-5 melanoma
SK-OV-3 ovarian = test system: SK-OV-3 ovarian
RPMI-8226 leukemia = test system: RPMI-8226 leukemia
NCI-H23 lung = test system: NCI-H23 lung
SK-MEL-2 melanoma = test system: SK-MEL-2 melanoma
SNB-19 CNS = test system: SNB-19 CNS
HL-60(TB) leukemia = test system: HL-60(TB) leukemia
TK-10 renal = test system: TK-10 renal
SF-268 CNS = test system: SF-268 CNS
HOP-92 NSCLC = test system: HOP-92 NSCLC
ACHN renal = test system: ACHN renal
KM12 colon = test system: KM12 colon
EKVX NSCLC = test system: EKVX NSCLC
COLO 205 colon = test system: COLO 205 colon
MDA-MB-435 = test system: MDA-MB-435
SR leukemia = test system: SR leukemia
SN12C renal = test system: SN12C renal
SW-620 colon = test system: SW-620 colon
A498 renal = test system: A498 renal
RXF 393 renal = test system: RXF 393 renal
SNB-75 CNS = test system: SNB-75 CNS
CAKI-1 renal = test system: CAKI-1 renal
HS 578T breast = test system: HS 578T breast

## c1ccc2c3c(ccc2c1)-c1c(ccc2c(NCCCCN4CCCCC4)cccc12)C3
SK-MEL-28 melanoma
  GI50: 1880 nM
  TGI: 4060 nM
HCT-116 colon
  GI50: 1630 nM
  TGI: 2980 nM
IGROV1 ovarian
  GI50: 2090 nM
  TGI: 8030 nM
786-0 renal
  GI50: 1760 nM
  TGI: 3140 nM
SF-295 CNS
  GI50: 1780 nM
  TGI: 3350 nM
MDA-MB-231 breast
  GI50: 599 nM
  TGI: 2210 nM
PC-3 prostate
  GI50: 1610 nM
  TGI: 3230 nM
T-47D breast
  GI50: 4270 nM
  TGI: > 100000 nM
MCF7 breast
  GI50: 10800 nM
  TGI: 30300 nM
A549 NSCLC
  GI50: 1470 nM
  TGI: 2790 nM
OVCAR-3 ovarian
  GI50: 1210 nM
  TGI: 2520 nM
OVCAR-5 ovarian
  GI50: 1310 nM
  TGI: 2880 nM
MOLT-4 leukemia
  GI50: 2090 nM
  TGI: > 100000 nM
DU-145 prostate
  GI50: 1770 nM
  TGI: 3330 nM
M14 melanoma
  GI50: 1940 nM
  TGI: 3350 nM
UACC-257 melanoma
  GI50: 1890 nM
  TGI: 4920 nM
NCI/ADR-RES ovarian
  GI50: 1610 nM
  TGI: 2960 nM
HOP-62 NSCLC
  GI50: 1570 nM
  TGI: 2910 nM
U251 CNS
  GI50: 1770 nM
  TGI: 3160 nM
SF-539 CNS
  GI50: 1790 nM
  TGI: 3440 nM
UACC-62 melanoma
  GI50: 1790 nM
  TGI: 3240 nM
OVCAR-8 ovarian
  GI50: 2190 nM
  TGI: 5610 nM
NCI-H522 lung
  GI50: 3420 nM
  TGI: 9220 nM
HCC-2998 colon
  GI50: 1630 nM
  TGI: 3490 nM
HCT-15 colon
  GI50: 1860 nM
  TGI: 3790 nM
K-562 leukemia
  GI50: 1670 nM
  TGI: 5850 nM
NCI-H460 lung
  GI50: 2080 nM
  TGI: 6740 nM
OVCAR-4 ovarian
  GI50: 2810 nM
  TGI: > 31000 nM
UO-31 renal
  GI50: 2610 nM
  TGI: 7660 nM
SK-MEL-5 melanoma
  GI50: 11000 nM
  TGI: 26700 nM
SK-OV-3 ovarian
  GI50: 10000 nM
  TGI: 35300 nM
RPMI-8226 leukemia
  GI50: 1640 nM
  TGI: 3600 nM
NCI-H23 lung
  GI50: 1700 nM
  TGI: 3160 nM
SK-MEL-2 melanoma
  GI50: 2920 nM
  TGI: 6420 nM
SNB-19 CNS
  GI50: 22200 nM
  TGI: 63500 nM
HL-60(TB) leukemia
  GI50: 2480 nM
  TGI: 14600 nM
TK-10 renal
  GI50: 2240 nM
  TGI: 4570 nM
SF-268 CNS
  GI50: 1070 nM
  TGI: 2250 nM
HOP-92 NSCLC
  GI50: 2460 nM
  TGI: 7730 nM
ACHN renal
  GI50: 1610 nM
  TGI: 2990 nM
KM12 colon
  GI50: 1510 nM
  TGI: 3000 nM
EKVX NSCLC
  GI50: 10700 nM
  TGI: 28000 nM
COLO 205 colon
  GI50: 2330 nM
  TGI: 6770 nM
MDA-MB-435
  GI50: 1910 nM
  TGI: 3310 nM
SR leukemia
  GI50: 1370 nM
  TGI: 5400 nM
SN12C renal
  GI50: 1620 nM
  TGI: 3050 nM

## Cc1ccc(S(=O)(=O)OC[C@@]2(C)CC[C@]3(C)CC[C@]4(C)C(=CC[C@@H]5[C@@]6(C)CCCNC(C)(C)[C@@H]6CC[C@]54C)[C@@H]3C2)cc1
SK-MEL-28 melanoma
  GI50: 1750 nM
  TGI: 3210 nM
SW-620 colon
  GI50: 1320 nM
  TGI: 2820 nM
OVCAR-5 ovarian
  GI50: 1740 nM
  TGI: 3200 nM
A498 renal
  GI50: 1660 nM
  TGI: 3160 nM
DU-145 prostate
  GI50: 1680 nM
  TGI: 3130 nM
RXF 393 renal
  GI50: 1630 nM
  TGI: 3330 nM
NCI/ADR-RES ovarian
  GI50: 2020 nM
  TGI: 4870 nM
UACC-62 melanoma
  GI50: 1830 nM
  TGI: 3320 nM
SNB-75 CNS
  GI50: 1590 nM
  TGI: 3100 nM
NCI-H460 lung
  GI50: 1360 nM
  TGI: 2850 nM
UO-31 renal
  GI50: 1390 nM
  TGI: 2870 nM
CAKI-1 renal
  GI50: 1600 nM
  TGI: 2940 nM
SK-MEL-2 melanoma
  GI50: 1820 nM
  TGI: 3340 nM
KM12 colon
  GI50: 1820 nM
  TGI: 3430 nM
HS 578T breast
  GI50: 1860 nM
  TGI: 4000 nM

## Fc1ccc(-c2nc(Nc3ccc(-c4nc5ccccc5[nH]4)cc3)nc(N3CCOCC3)n2)cc1
A549 NSCLC
  GI50: 666 nM
  TGI: 2130 nM
SW-620 colon
  GI50: 186 nM
  TGI: 372 nM
OVCAR-3 ovarian
  GI50: 374 nM
  TGI: 1370 nM
DU-145 prostate
  GI50: 452 nM
  TGI: 1640 nM
OVCAR-8 ovarian
  GI50: 1120 nM
  TGI: 2610 nM
OVCAR-4 ovarian
  GI50: 1040 nM
  TGI: 2400 nM
SK-MEL-5 melanoma
  GI50: 1690 nM
  TGI: 3130 nM
SK-OV-3 ovarian
  GI50: 1840 nM
  TGI: 3280 nM
CAKI-1 renal
  GI50: 1410 nM
  TGI: 2720 nM
TK-10 renal
  GI50: 1960 nM
  TGI: 3420 nM
HOP-92 NSCLC
  GI50: 1300 nM
  TGI: 2700 nM
KM12 colon
  GI50: 370 nM
  TGI: 1410 nM
HS 578T breast
  GI50: 700 nM
  TGI: 3020 nM
